Entries after “also recorded” stand apart in the source; their conditions may differ.
Tests used:
ATM [1] = biological target: T1, ATM (Homo sapiens, UniProt Q13315); assay: Kinativ chemical proteomics profiling in cellular lysates; type: binding
ATR [2] = biological target: T2, ATR (Homo sapiens, UniProt Q13535); assay: as above; type: binding
SMG1 = SMG1 (Homo sapiens, UniProt Q96Q15); assay: as above; type: binding
mTORC1 [3] = biological target: T3, mTORC1 (Homo sapiens, UniProt P42345); conditions: cited from earlier work
ATM [4] = biological target: T1, ATM; type: cell-based
PIP4K2C = PIP4K2C (Homo sapiens, UniProt Q8TBX8); assay: Kinativ chemical proteomics profiling in cellular lysates; type: binding
PIP5K3 = PIP5K3 (Homo sapiens, UniProt Q9Y2I7); assay: as above; type: binding
ATR [5] = biological target: T2, ATR; assay: ATR cellular activity, S317 of Chk1 after UV radiation, HCT-116 cells; type: cell-based
mTORC1 [6] = biological target: T3, mTORC1; conditions: 0.5 µM inhibitor 1 hour, then 500 µM ATP
DNA-PK = DNA-PK (Homo sapiens, UniProt P78527); conditions: combined biochemical and cellular profiling summary
KRAS-driven lung tumors = assay: Tumor volume by MRI in KRAS G12D driven lung cancer model; type: in vivo; conditions: KRAS G12D mice, 4 weeks, Torin2 40 mg/kg q.d., AZD6244 25 mg/kg q.d.
Hela cells = assay: Autophagy assay, acridine orange staining; type: cell-based; conditions: 72 h
H2122 = assay: Tumor cell growth assay; type: cell-based; conditions: Homo sapiens, NCI-H2122, 72 h
mTORC2 [7] = biological target: T4, mTORC2 (Homo sapiens, UniProt P42345); conditions: combined biochemical and cellular profiling summary
[8] = system: HCT116 cells, AktT308 phosphorylation; assay: Longer-term cellular signaling analysis; type: cell-based; conditions: 100 nM
Hela = assay: Tumor cell growth assay; type: cell-based; conditions: Homo sapiens, 72 h
H358 = assay: Tumor cell growth assay; type: cell-based; conditions: Homo sapiens, NCI-H358, 72 h
[9] = system: HCT-116, Hela, Calu-1, H358 and H226; assay: Autophagy assay, LC3B staining and western blot; type: cell-based; conditions: 5 cell lines, 3 days
MDAMB231 = assay: Tumor cell growth assay; type: cell-based; conditions: Homo sapiens, MDA-MB-231, 72 h
[10] = system: cancer cell lines (HCT116, Hela, Calu 1, H226, H358); assay: Apoptosis assay, PARP cleavage by western blot; type: cell-based; conditions: 16 hours
H1792 = assay: Tumor cell growth assay; type: cell-based; conditions: Homo sapiens, NCI-H1792, 72 h
[11] = system: HeLa cells, AktT308 phosphorylation; assay: Longer-term cellular signaling analysis; type: cell-based; conditions: 100 nM
BT-20 = assay: Tumor cell growth assay; type: cell-based; conditions: Homo sapiens, BT-20, 72 h
MCF10A = assay: Tumor cell growth assay; type: cell-based; conditions: Homo sapiens, MCF-10A, 72 h
H1299 = assay: Tumor cell growth assay; type: cell-based; conditions: Homo sapiens, NCI-H1299, 72 h
pERK = assay: Pharmacodynamics by immunohistochemistry in KRAS G12D lung tumors; type: in vivo, Mice; conditions: for pERK1/2 levels: after 4-week treatment
SKBR3 = assay: Tumor cell growth assay; type: cell-based; conditions: Homo sapiens, SK-BR-3, 72 h
H292 = assay: Tumor cell growth assay; type: cell-based; conditions: Homo sapiens, NCI-H292, 72 h
H1355 = assay: Tumor cell growth assay; type: cell-based; conditions: Homo sapiens, NCI-H1355, 72 h
Hela S3 cells = assay: Cell cycle analysis by FACS; type: cell-based; conditions: Hela S3, 48 hrs
T308 of Akt = assay: Western blot of T308 of Akt in HCT-116 cells; type: cell-based; conditions: Homo sapiens, HCT-116, read-out: EC50, T308 of Akt
mTORC2 [12] = biological target: T4, mTORC2; assay: Cellular wash-out assay, AktS473 phosphorylation, HCT116 cells; type: cell-based; conditions: 100 nM for 1 hour, then wash-out
mTOR = assay: Pharmacodynamics by immunohistochemistry in KRAS G12D lung tumors; type: in vivo, Mice
MCF7 = assay: Tumor cell growth assay; type: cell-based; conditions: Homo sapiens, MCF7, 72 h
mTORC1 [13] = biological target: T3, mTORC1; conditions: combined biochemical and cellular profiling summary
HCT-116 = assay: Tumor cell growth assay; type: cell-based; conditions: Homo sapiens, HCT-116, 72 h
HS578T = assay: Tumor cell growth assay; type: cell-based; conditions: Homo sapiens, Hs-578T, 72 h
Calu1 = assay: 72-hour proliferation assay; type: cell-based, human
[14] = system: human fibroblast AG01522 cell line; assay: Ionizing irradiation assay, clonogenic cell survival; type: cell-based; conditions: AG01522, added 30min before irradiation
Human mTORC1 complex = Human mTORC1 complex (Homo sapiens, UniProt P42345); assay: ATP competition assay; conditions: biochemical kinase assays with increasing ATP concentrations
ATR kinase = assay: Pharmacodynamics by immunohistochemistry in KRAS G12D lung tumors; type: in vivo, Mice; conditions: after 4-week treatment
A549 = assay: Tumor cell growth assay; type: cell-based; conditions: Homo sapiens, A549, 72 h
H441 = assay: Tumor cell growth assay; type: cell-based; conditions: Homo sapiens, NCI-H441, 72 h
H460 = assay: Tumor cell growth assay; type: cell-based; conditions: Homo sapiens, NCI-H460, 72 h
mTORC1 [15] = biological target: T3, mTORC1; assay: Cellular wash-out assay, S6KT389 phosphorylation, HCT116 cells; type: cell-based; conditions: 100 nM for 1 hour, then wash-out
[16] = combined biochemical and cellular profiling summary
[17] = 2-day, 40 mg/kg single daily dosing

T1 sequence (Q13315 whole entry, species assumed): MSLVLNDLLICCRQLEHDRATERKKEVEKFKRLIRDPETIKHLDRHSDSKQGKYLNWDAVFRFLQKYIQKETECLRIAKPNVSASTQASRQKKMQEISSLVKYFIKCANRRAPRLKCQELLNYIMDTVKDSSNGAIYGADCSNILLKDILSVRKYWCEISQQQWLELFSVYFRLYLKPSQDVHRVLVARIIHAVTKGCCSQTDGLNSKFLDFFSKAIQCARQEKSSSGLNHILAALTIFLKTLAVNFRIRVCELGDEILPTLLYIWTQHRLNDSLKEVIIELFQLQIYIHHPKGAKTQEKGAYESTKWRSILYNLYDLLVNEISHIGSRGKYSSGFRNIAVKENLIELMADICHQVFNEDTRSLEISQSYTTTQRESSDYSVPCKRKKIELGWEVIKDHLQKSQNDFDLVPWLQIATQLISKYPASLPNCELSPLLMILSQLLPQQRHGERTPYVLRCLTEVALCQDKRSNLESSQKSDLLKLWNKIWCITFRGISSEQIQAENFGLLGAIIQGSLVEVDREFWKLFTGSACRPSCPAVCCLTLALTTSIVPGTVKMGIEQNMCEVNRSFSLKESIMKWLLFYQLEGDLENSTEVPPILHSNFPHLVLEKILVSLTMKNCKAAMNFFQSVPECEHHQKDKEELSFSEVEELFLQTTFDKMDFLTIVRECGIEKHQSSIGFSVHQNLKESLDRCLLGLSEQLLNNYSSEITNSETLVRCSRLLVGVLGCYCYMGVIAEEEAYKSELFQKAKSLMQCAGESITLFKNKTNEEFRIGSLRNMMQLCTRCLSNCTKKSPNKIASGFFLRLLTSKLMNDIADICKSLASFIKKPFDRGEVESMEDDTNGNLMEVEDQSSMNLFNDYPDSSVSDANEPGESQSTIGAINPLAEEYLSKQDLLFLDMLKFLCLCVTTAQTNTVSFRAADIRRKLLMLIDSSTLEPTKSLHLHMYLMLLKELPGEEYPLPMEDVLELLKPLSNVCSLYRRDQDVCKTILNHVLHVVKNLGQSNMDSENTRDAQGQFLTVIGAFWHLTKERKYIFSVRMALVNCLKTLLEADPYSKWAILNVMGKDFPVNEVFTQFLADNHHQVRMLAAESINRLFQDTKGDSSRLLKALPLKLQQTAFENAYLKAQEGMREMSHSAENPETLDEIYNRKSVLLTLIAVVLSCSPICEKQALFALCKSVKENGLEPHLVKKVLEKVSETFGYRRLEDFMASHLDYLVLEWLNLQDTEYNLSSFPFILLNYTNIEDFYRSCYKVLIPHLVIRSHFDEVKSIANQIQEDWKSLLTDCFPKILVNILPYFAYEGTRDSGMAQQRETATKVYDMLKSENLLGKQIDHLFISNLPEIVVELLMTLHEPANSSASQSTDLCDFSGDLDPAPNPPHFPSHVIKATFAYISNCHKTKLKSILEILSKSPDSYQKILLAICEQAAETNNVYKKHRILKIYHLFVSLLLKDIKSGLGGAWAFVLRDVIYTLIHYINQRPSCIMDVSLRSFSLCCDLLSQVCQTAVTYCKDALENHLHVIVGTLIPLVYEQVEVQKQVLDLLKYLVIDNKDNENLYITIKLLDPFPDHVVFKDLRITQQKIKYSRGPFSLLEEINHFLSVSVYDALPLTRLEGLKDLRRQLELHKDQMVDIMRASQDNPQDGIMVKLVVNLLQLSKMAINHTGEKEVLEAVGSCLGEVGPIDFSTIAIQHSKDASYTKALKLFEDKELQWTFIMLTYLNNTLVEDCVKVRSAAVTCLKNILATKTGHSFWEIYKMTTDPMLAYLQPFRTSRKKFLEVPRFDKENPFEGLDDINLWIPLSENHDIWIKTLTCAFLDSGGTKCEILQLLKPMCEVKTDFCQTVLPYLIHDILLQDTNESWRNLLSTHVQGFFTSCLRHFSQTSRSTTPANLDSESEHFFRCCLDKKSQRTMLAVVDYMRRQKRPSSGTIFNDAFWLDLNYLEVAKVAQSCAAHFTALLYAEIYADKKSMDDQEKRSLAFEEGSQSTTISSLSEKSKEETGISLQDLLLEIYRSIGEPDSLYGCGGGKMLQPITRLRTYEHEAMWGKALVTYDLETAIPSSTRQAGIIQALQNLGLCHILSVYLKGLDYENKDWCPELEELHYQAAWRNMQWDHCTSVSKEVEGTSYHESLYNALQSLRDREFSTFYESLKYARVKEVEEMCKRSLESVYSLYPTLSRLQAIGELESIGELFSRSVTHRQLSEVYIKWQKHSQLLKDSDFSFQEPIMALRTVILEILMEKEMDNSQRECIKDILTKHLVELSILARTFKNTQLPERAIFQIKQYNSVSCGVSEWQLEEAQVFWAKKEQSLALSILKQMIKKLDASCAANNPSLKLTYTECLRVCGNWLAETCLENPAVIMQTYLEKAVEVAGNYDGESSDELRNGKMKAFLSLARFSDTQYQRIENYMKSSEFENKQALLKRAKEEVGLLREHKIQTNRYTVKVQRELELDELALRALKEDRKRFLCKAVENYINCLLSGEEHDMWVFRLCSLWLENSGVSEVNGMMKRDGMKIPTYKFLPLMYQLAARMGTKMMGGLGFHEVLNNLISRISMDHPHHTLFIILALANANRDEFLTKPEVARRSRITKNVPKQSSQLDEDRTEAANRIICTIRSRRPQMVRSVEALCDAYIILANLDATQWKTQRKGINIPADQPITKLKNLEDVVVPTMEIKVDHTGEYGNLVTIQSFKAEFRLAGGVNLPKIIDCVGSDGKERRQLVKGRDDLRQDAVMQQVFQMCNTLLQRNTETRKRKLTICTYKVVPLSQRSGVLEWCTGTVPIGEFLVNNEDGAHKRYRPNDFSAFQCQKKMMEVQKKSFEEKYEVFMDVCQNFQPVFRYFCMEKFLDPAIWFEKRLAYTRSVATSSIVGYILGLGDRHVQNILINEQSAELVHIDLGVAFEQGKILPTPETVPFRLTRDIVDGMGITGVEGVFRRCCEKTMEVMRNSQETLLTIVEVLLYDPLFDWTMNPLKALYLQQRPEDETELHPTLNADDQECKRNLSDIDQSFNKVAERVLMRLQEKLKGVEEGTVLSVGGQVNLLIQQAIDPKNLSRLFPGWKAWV
Sequence of PIP4K2C (Q8TBX8 whole entry, species assumed): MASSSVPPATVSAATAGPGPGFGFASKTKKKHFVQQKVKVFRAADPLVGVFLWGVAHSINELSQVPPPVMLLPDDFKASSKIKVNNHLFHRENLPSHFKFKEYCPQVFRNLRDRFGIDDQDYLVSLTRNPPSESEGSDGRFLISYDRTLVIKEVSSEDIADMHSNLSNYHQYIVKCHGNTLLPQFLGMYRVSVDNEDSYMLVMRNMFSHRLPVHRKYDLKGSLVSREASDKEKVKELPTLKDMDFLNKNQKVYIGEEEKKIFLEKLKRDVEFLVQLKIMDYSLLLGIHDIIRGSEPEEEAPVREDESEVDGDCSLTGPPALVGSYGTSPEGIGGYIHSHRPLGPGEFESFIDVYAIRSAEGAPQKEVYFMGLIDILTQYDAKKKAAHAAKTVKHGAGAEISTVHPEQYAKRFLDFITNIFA

For CCC(=O)N1CCN(c2ccc(-n3c(=O)ccc4cnc5ccc(-c6cnc7ccccc7c6)cc5c43)cc2C(F)(F)F)CC1 [Torin1, 1-(4-(4-propionylpiperazin-1-yl)-3-(trifluoromethyl)phenyl)-9-(quinolin-3-yl)benz o[h][1,6]naphthyridin-2(1H)-one], which IC50 (ATM [1]) is on record?
Its IC50 is 640 nM.

What about the IC50 (ATR [2]) of the same compound?
The IC50 was < 10 nM.

What about the IC50 (SMG1) of the same compound?
Its IC50 is 4400 nM.

What about the “duration of suppression of S6K T389 phosphorylation after removal of the drug” value (mTORC1 [3]) of the same compound?
Its value is “up to 16 h”.

And the EC50 (ATM [4])?
The EC50 was > 1000 nM.

And the IC50 (PIP4K2C)?
The IC50 was > 10000 nM.

What about the IC50 (PIP5K3) of the same compound?
The IC50 was > 10000 nM.

And the EC50 (ATR [5])?
The EC50 was > 1000 nM.

What about the “duration of sustained inhibition of mTORC1 kinase activity after removal of drug” value (mTORC1 [6]; 4EBP1 phosphorylation) of the same compound?
The value was “approximately 75 minutes”.

Which “concentration at which DNA-PK is inhibited” value (DNA-PK) does the source give for Nc1ccc(-c2ccc3ncc4ccc(=O)n(-c5cccc(C(F)(F)F)c5)c4c3c2)cn1 [Torin2, 9-(6-aminopyridin-3-yl)-1-(3-(trifluoromethyl)phenyl)benzo[h][1,6]naphthyridin-2(1H)-one] here?
Its value is 20 to 100 nM.

What about the “tumor volume / tumor growth by MRI” value (KRAS-driven lung tumors) of the same compound?
Its value is “did not yield significant efficacy; also recorded: neither Torin2 (40 mg/kg, q.d.) nor AZD6244 (25 mg/kg, q.d.) alone resulted in a significant inhibition of tumor volume”.

And the “punctate acridine orange staining (autophagy)” value (Hela cells)?
The value was “dose dependent increase in punctate acridine staining”.

What about the GI50 (H2122) of the same compound?
The GI50 was 13.2 nM.

And the “concentration at which PI3K is inhibited” value (PI3K; [16])?
Its value is “above 200 nM”.

And the EC50 (PI3K; read-out: apparent EC50 against T308 with S473D mutant of Akt, PC3 AktS473D cell line)?
The EC50 was 200 nM.

What about the “concentration at which mTORC2 is inhibited” value (mTORC2 [7]) of the same compound?
The value was “less than 10 nM”.

What about the “recovery of AktT308 phosphorylation by 72 hours” value [8] of the same compound?
The value was “partially”.

What about the GI50 (Hela) of the same compound?
Its GI50 is 29.3 nM.

And the GI50 (H358)?
The GI50 was 105 nM.

And the LC3-1/II autophagosome markers [9]?
Its LC3-1/II autophagosome markers is “dose dependent increase of LC3-1/II autophagosome markers”.

What about the GI50 (MDAMB231) of the same compound?
Its GI50 is 108 nM.

What about the “apoptosis (PARP cleavage) in H358” value [10] of the same compound?
The value was “induced strong apoptosis”.

What about the GI50 (H1792) of the same compound?
Its GI50 is 19.8 nM.

What about the “recovery of AktT308 phosphorylation by 72 hours” value [11] of the same compound?
The value was “completely recovered”.

And the GI50 (BT-20)?
The GI50 was 219 nM.

What about the GI50 (MCF10A) of the same compound?
Its GI50 is 32.1 nM.

And the GI50 (H1299)?
Its GI50 is 23.6 nM.

What about the pERK1/2 levels (pERK) of the same compound?
Its pERK1/2 levels is “significantly increased”.

And the GI50 (SKBR3)?
Its GI50 is 123 nM.

And the GI50 (H292)?
The GI50 was 10.1 nM.

And the GI50 (H1355)?
The GI50 was 25.8 nM.

And the “cell cycle distribution by flow cytometry” value (Hela S3 cells)?
Its value is “dose-dependent decrease in G1 cells and an increase in S-phase, sub-G1 phase cells and cell death”.

And the EC50 (T308 of Akt)?
The EC50 was < 10 nM.

And the “time for AktS473 phosphorylation (mTORC2 function) to recover after wash-out” value (mTORC2 [12])?
The value was “approximately 4 hours”.

What about the “pAkt(T308) by immunohistochemistry” value (mTOR; [17]) of the same compound?
The value was “partly suppressed”.

And the “pS6K(T389) and p4EBP1(T37/46) by immunohistochemistry” value (mTOR; [17])?
Its value is “strongly suppressed”.

And the “pS6K(T389) and p4EBP1(T37/46) levels” value (mTOR; after 4-week treatment)?
Its value is “showed some recovery”.

What about the GI50 (MCF7) of the same compound?
Its GI50 is 41.1 nM.

And the “concentration at which mTORC1 is inhibited” value (mTORC1 [13])?
The value was “less than 10 nM”.

And the GI50 (HCT-116)?
The GI50 was 60.7 nM.

What about the GI50 (HS578T) of the same compound?
Its GI50 is 62.4 nM.

And the “concentration at which ATM is inhibited” value (ATM [4]; [16])?
The value was 20 to 100 nM.

And the “sensitivity of proliferation, Calu1” value (Calu1)?
The value was “relatively more resistant”.

What about the “sensitization of IR treatment, clonogenic survival” value [14] of the same compound?
The value was “dose dependent sensitization of the IR treatment”.

What about the “mode of mTOR inhibition” value (Human mTORC1 complex) of the same compound?
Its value is “ATP-competitive fashion”.

What about the “pCHK1(S345)” value (ATR kinase) of the same compound?
The value was “slightly decreased”.

What about the GI50 (A549) of the same compound?
Its GI50 is 31.1 nM.

And the “concentration at which ATR is inhibited” value (ATR [5]; [16])?
The value was 20 to 100 nM.

And the GI50 (H441)?
Its GI50 is 20.5 nM.

What about the “recovery of mTORC1 kinase activity after removal of drug” value (mTORC1 [6]; about 75 minutes window) of the same compound?
Its value is “sustained inhibition of mTORC1”.

And the GI50 (H460)?
Its GI50 is 45.7 nM.

For COc1ccc(-c2ccc3c(N4CCOC[C@@H]4C)nc(N4CCOC[C@@H]4C)nc3n2)cc1CO [AZD8055, reference compound], which “time for S6KT389 phosphorylation (mTORC1 function) to recover after wash-out” value (mTORC1 [15]) is on record?
Its value is ≤ 1 h.

And the “time for AktS473 phosphorylation (mTORC2 function) to recover after wash-out” value (mTORC2 [12])?
The value was ≤ 1 h.

What about the “sensitivity of proliferation, Calu1” value (Calu1) of the same compound?
The value was “relatively more resistant”.

Which “tumor volume / tumor growth by MRI” value (KRAS-driven lung tumors) does the source give for Cn1cnc2c(F)c(Nc3ccc(Br)cc3Cl)c(C(=O)NOCCO)cc21 [AZD6244] here?
The value was “neither Torin2 (40 mg/kg, q.d.) nor AZD6244 (25 mg/kg, q.d.) alone resulted in a significant inhibition of tumor volume”.

And the pERK by immunohistochemistry (pERK; 2-day, AZD6244 25 mg/kg)?
Its pERK by immunohistochemistry is “profound inhibition”.

What about the pERK1/2 levels (pERK) of the same compound?
Its pERK1/2 levels is “slightly recovered”.

Reference: paper PMC3760004 (Cancer research, 2013)
